Measured values taken from PMC11206029, “Identification and Characterization of Cannabichromene’s Major Metabolite Following Incubation with Human Liver Microsomes” (Metabolites, 2024).
Read-outs that look alike come from different tables or passages of the source.

Legend:
microglia = tested on: microglia; parameters: method as in PMID 38477310; settings: microglia following lipopolysaccharide challenge; cited from earlier work
human recombinant CB2R = human recombinant CB2R (Homo sapiens, UniProt P34972); assay: Competitive radioligand binding assay, displacement of [^3H]CP 55,940; settings: for Hill Slope: CB2R, means ± S.E.M. of four to ten experiments
human recombinant CB1R = human recombinant CB1R (Homo sapiens, UniProt P21554); assay: biochemical; type: binding
[1] = Incubation of CBC with pooled human liver microsomes, metabolite identification; type: in vitro ADME
Description: To maximize the yield of CBC metabolites, parameters including incubation time, HLM protein concentration, and CBC concentration were optimized, and representative extracted ion chromatograms are available in the Supplementary Materials (Section S1.2). The parameters resulting in the highest yield of metabolites were determined to be 0.5 mg/mL HLM, 50 µg/mL CBC, and a 40 min incubation time. Prior to adding the drug, the NADPH-generating system was incubated on a shaker set to 150 rpm at a temperature of 37 ± 2 °C for 10 min (C24 Incubator Shaker, New Brunswick Scientific, Edison, NJ, USA). […]
The HPLC components for the semi-preparative isolation of the major CBC metabolite were as follows: G1322A degasser, G1312A binary pump, G1329B 1260 ALS, G1315B DAD, G1364B fraction collector (all Agilent Technologies, Santa Clara, CA, USA), and an external column compartment ThermaSphere (Phenomenex, Torrance, CA, USA). […] UV absorbance was monitored at 210 nm and 231 nm. […] Isolated metabolites and controls were analyzed utilizing both LC-MS/MS and GC-MS/MS as described below. […]
Samples were derivatized and analyzed using GC-MS/MS based on the previous literature. […] Samples were cooled, transferred to autosampler vials and immediately analyzed via GC-MS/MS. […]

[2] = parameters: method as in PMID 1806943; settings: gerbil-derived liver microsomes; cited from earlier work
[3] = parameters: method as in PMID 1806943; settings: cat-derived liver microsomes; cited from earlier work
[4] = parameters: method as in PMID 37574147; settings: human hepatic biotransformation; cited from earlier work
[5] = parameters: method as in PMID 1806943; settings: hamster-derived liver microsomes; cited from earlier work

Chain of human recombinant CB2R (P34972 whole entry): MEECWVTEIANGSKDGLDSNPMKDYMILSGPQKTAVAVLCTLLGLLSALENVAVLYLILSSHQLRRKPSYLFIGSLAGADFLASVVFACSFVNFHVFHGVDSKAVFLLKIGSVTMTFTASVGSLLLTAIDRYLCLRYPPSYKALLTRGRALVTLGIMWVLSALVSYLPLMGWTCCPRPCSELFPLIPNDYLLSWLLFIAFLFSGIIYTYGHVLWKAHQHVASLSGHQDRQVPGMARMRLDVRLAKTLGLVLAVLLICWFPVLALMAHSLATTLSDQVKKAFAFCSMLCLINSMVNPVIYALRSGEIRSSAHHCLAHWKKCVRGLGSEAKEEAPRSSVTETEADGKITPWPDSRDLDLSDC
Chain of human recombinant CB1R (P21554 whole entry): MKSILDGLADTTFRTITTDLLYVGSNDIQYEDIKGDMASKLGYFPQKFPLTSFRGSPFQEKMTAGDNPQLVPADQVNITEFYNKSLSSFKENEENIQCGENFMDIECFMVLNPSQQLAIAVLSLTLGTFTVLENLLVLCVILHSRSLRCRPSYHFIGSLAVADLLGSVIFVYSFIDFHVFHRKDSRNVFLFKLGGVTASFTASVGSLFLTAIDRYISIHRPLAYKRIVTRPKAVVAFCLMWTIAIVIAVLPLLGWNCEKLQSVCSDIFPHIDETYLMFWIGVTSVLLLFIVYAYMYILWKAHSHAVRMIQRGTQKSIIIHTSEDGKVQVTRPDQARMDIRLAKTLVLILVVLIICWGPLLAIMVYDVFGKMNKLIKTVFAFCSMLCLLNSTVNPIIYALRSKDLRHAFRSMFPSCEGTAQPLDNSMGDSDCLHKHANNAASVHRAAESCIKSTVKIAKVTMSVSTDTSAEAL

SMILES: CCCCCc1cc(O)c2c(c1)OC(C)(CCC(O)C(C)(C)O)C=C2 (stereo not drawn) [6′, 7′-dihydroxy-CBC]
- Inflammatory phenotype by nitric oxide production (microglia): reduction in nitric oxide production

SMILES: CCCCCc1cc(O)c2c(c1)OC(C)(CC/C=C(\C)CO)C=C2 (stereo not drawn) [8′-hydroxy-CBC]
- Inflammatory phenotype by nitric oxide production (microglia): pro-inflammatory

SMILES: CCCCCc1cc2c3c(c1)OC1(C)CCC(C3C1O)C(C)(C)O2 (stereo not drawn) [2′-hydroxycannabicitran]
- Ki (human recombinant CB2R): > 10 µM
- Ki (human recombinant CB1R): > 10 µM

SMILES: CCCCCc1cc(O)c2c(c1)OC(C)(CCC=C(C)C)C=C2 (stereo not drawn) [CBC, Cannabichromene]
- Major metabolite generated by HLMs ([1]; 0.5 mg/mL HLM, 50 µg/mL CBC, 40 min incubation, NADPH-generating system): 2′-hydroxycannabicitran
- Formation of carboxylic acid metabolites ([1]; incubation with HLM, optimized conditions): did not observe any carboxylic acid metabolites
- Epoxidation across the alkene on the branched aliphatic chain, share of the total amount of metabolites generated [2]: 12%
- Ki (human recombinant CB2R): 0.301 ± 0.072 µM
- Hill Slope (human recombinant CB2R): −1.32 ± 0.36
- Epoxidation across the alkene on the branched aliphatic chain, share of the total amount of metabolites generated [3]: 42%
- Hydroxylation, share of all CBC metabolites produced [4]: 31%
- Monoglucuronides, share of all CBC metabolites produced [4]: ~50%
- Ki (human recombinant CB1R): 3.5 ± 1.2 µM
- Hill Slope (human recombinant CB1R; CB1R, means ± S.E.M. of four to ten experiments): −0.27 ± 0.51
- Epoxidation across the alkene on the branched aliphatic chain, share of the total amount of metabolites generated [5]: 10%

SMILES: CCCCCc1cc2c3c(c1)OC(C)(C)C1CCC(C)(CC31)O2 (stereo not drawn) [CBT-C, cannabicitran, reference compound]
- Ki (human recombinant CB2R): 4.2 ± 0.41 µM
- Hill Slope (human recombinant CB2R): −1.15 ± 0.14
- Ki (human recombinant CB1R): > 10 µM
